According to BindingDB's records for patent US10689345 (Mission Therapeutics Limited, 2020):

Target: T1, Ubiquitin carboxyl-terminal hydrolase 30 (Homo sapiens, UniProt Q70CQ3)
T1 sequence (Q70CQ3 whole entry): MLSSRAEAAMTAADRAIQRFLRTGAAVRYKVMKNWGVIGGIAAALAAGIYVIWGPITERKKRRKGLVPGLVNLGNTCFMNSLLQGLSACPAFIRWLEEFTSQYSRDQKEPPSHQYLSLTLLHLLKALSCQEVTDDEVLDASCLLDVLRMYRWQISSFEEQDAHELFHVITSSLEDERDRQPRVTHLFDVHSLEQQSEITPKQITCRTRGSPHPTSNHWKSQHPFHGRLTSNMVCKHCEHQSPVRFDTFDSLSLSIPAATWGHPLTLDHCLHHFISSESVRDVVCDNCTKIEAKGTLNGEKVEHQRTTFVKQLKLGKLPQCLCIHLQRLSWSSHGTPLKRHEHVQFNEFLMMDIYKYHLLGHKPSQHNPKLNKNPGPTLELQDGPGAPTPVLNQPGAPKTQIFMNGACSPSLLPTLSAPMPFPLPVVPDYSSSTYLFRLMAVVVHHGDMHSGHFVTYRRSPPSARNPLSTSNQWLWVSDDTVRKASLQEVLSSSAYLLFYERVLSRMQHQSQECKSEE
Test: Biochemical Fluorescence Intensity Kinetic Assay/Biochemical Fluorescence Intensity Assay
Protocol: Buffer was optimised for optimal temperature, pH, reducing agent, salts, time of incubation, and detergent. […] Reactions were incubated at room temperature and read every 2 min for 120 min. Readings were performed on a Pherastar Plus (BMG Labtech). […] A typical 8-point dilution series would be 100, 30, 10, 3, 1, 0.3, 0.1, 0.03 μM final. […] Either 1 μl of 50% DMSO or diluted compound was added to the plate. USP30 was diluted in reaction buffer (40 mM Tris, pH 7.5, 0.005% Tween 20, 0.5 mg/ml BSA, 5 mM beta-mercaptoethanol) to the equivalent of 0.001 μl/well and 10 μl of diluted USP30 was added to the compound. Enzyme and compound were incubated for 30 min at room temp. […] Reactions were read immediately after addition of substrate and following a 2 h incubation at room temperature.

CO[C@@H]1CN(C#N)C[C@H]1N(C)C(=O)c1ccc(-c2cnn(C)c2)cc1 [US10689345, Example 178]
IC50: in the range around 550 nM
